According to US8318801B2, “Cinnamic compounds and derivatives therefrom for the inhibition of histone deacetylase” (Naturewise Biotech & Medicals Corporation, priority 2009, dated 2012):
Entries after “also recorded” stand apart in the source; their conditions may differ.

Experiments:
[1] = test system: Human glioblastoma 05-MG cells; experiment: Inhibition of cancer cell growth; format: cell-based; conditions: 05-MG cells, 1.0, 2.0, 4.0 μg/mL, 72 hrs (FIG. 5(e))
Protocol: (§1) Five cancer cell lines, Rat C6 giloma cells, Human breast cancer MCF-7 cells, Human glioma Hs683 cells, Human glioblastoma 05-MG cells, and Human lung cancer A549 cells, were cultured in Dulbecco's modified Eagle's medium (DMEM; Gibco) containing 10% fetal bovine serum (FBS) and 1% penicillin/streptomycin, and were kept at 37° C. in a humidified atmosphere of 95% air and 5% CO2. Human breast cancer. MDA-MB-231 cells were cultured in L-15 medium (Gibco) containing 10% fetal bovine serum (FBS), 1% penicillin/streptomycin, and 2 mM glutamine, and were maintained at 37° C. in a humidified atmosphere of 95% air and 0% CO2. For these experiments, the cells were seeded in 6-well plates or a 60-mm dish. After 24 hours, the cells were treated with different concentrations of the various compounds. […] Human glioblastoma 05-MG cells were treated with NBM-C-BCX-OS01 (1.0, 2.0, 4.0 μg/mL) and NBM-C-BMX-OS01 (1.0, 2.0, 4.0 μg/mL) for 72 hours (see FIG. 5(e)). […] The results were counted by a trypan blue exclusion assay (see FIG. 6(b)).

[2] = test system: Human lung cancer A549 cells; experiment: Inhibition of cancer cell growth; format: cell-based; conditions: for cell growth inhibition: 72 hrs, NBM-C-BX-OS01 7.5, others 2.5, 5.0, 7.5 μg/mL (FIG. 5(b))
Protocol: (§2) Three cancer cell lines, Rat C6 giloma cells, Human breast cancer MCF-7 cells, and Human lung cancer A549 cells, were cultured in Dulbecco's modified Eagle's medium (DMEM; Gibco) containing 10% fetal bovine serum (FBS) and 1% penicillin/streptomycin. All three cell lines were maintained at 37° C. in a humidified atmosphere of 95% air and 5% CO2. For the experiments, the cells were seeded in 6-well plates. After 24 hours, the cells were treated with different concentrations of the various compounds.
as §1

Rat C6 glioma cells = experiment: Inhibition of cancer cell growth and change of morphology; format: cell-based; conditions: Rat C6 glioma cells
Protocol: as §2, §1

[3] = test system: human breast cancer MDA-MB-231 cells; experiment: as above; format: cell-based; conditions: MDA-MB-231 cells
Protocol: Their results were counted by a trypan blue exclusion assay (see FIG. 9(f)).
as §1

[4] = test system: acetyl-Histone H3, acetyl-Histone H4, acetyl-tubulin, p21, CTPS, Gelsolin, Hsp90, acetyl-Hsp90 in Human glioma Hs683 cells; experiment: Immunoblotting of histones and HDAC associated proteins; format: cell-based; conditions: Hs683 cells, 1.0, 2.0, 4.0 μg/mL
Protocol: Human glioma Hs683 cells were seeded at 5×10^5 cells in a 60-mm dish or 1×10^6 cells in a 100-mm dish. After 24 hours, Human glioma Hs683 cells were treated with different doses of NBM-C-BCX-OS01, NBM-C-BMX-OS01 (1.0, 2.0, 4.0 μg/mL), and vorinostat (SAHA, 5 μM) for 72 hours. Lysates of Hs683 cells were prepared for the immunoblotting of acetyl-Histone H3 (Cell Signaling Technology, Inc.), acetyl-Histone H4 (Upstate), acetyl-tubulin (Sigma Chemical Co.), p21 (BD Pharmingen Technology, Inc.), CTPS (ABNOVA TAIWAN Corporation), Gelsolin (Sigma Chemical Co.), Hsp90 (Cell Signaling Technology, Inc.), acetyl-Hsp90 (ROCKLAND, Inc.) and actin (Sigma Chemical Co.). Proteins were detected by chemiluminescence (ECL, Amersham). […] SAHA was used as a positive control and β-actin as an internal control (see FIG. 7(b)).

tumor cell lines = conditions: cited from earlier work
[5] = test system: acetyl-tubulin in Rat C6 glioma cells; experiment: Immunostaining of HDAC associated proteins; format: cell-based; conditions: 7.5 μg/mL, 6 hrs (FIG. 2(e))
Protocol: (§3) Rat C6 glioma cells, Human breast cancer MCF-7 cells, and Human lung cancer A549 cells were seeded in 6-well plates. After 24 hrs of incubation in medium+10 BSA, Human breast cancer MCF-7 cells were treated with NBM-HB-OS01 (10.0 μg/mL) and vorinostat (SAHA, 5 μM) for 24 hours. Rat C6 glioma cells were treated with NBM-C-BX-OS01 (7.5 μg/mL) and vorinostat (SAHA, 5 μM) for 6 hours. Human lung cancer A549 cells were treated with NBM-C-BA-OS01 (7.5 μg/mL) and vorinostat (SAHA, 5 μM) for 6 hours. The treated cells were fixed in 80% methanol for 30 minutes and then washed 3 times with PBS solution. Cells were permeabilized with 0.3% Triton X-100 for 30 minutes, and then blocked in 10% fetal bovine serum (FBS) in PBS-T (0.1% Twin 20 in PBS) for 1 hour. The treated cells were detected with primary antibody against acetyl-Histone H3, acetyl-tubulin, and Gelsolin.

[6] = test system: Human breast cancer MCF-7 cells; experiment: Inhibition of cancer cell growth and change of morphology; format: cell-based; conditions: MCF-7 cells, various concentrations, 24 hrs (FIG. 2(b))
Protocol: as §2, §1

[7] = test system: acetyl-Histone H3, acetyl-Histone H4, acetyl-tubulin, p21 in Human breast cancer MCF-7 cells; experiment: Immunoblotting of hyperacetylated histone, tubulin and p21; format: cell-based; conditions: 10 μg/mL (7.5 μg/mL elsewhere in the source) for 1, 2, 3 and 4 hrs (FIG. 2(d))
Protocol: (§4) Rat C6 glioma cells and Human breast cancer MCF-7 cells were seeded 5×10^5 cells in a 60-mm dish or 1×10^6 cells in a 100-mm dish. After 24 hours, Rat C6 glioma cells were treated with various concentrations of NBM-HB-OS01 (2.5, 5.0, 7.5, 10.0 μg/mL) for 72 hours and were treated with 10.0 μg/mL. NBM-HB-OS01 for 1, 2, 3, and 4 hours. Human breast cancer MCF-7 cells were treated with 7.5 μg/mL NBM-C-BX-OS01 for 1, 2, 3, and 4 hours.

[8] = test system: Human lung cancer A549 cells; experiment: Cell cycle analysis by flow cytometry (propidium iodide); format: cell-based; conditions: A549 cells, 2.5, 5.0, 7.5, 10.0 μg/mL, 24 hours (FIG. 1(c))
Protocol: Human lung cancer A549 cells, Human glioma Hs683 cells and Human glioblastoma 05-MG cells were seeded 1×10^6 cells in a 100-mm dish. After 24 hours of incubation in DMEM+10% BSA, Human lung cancer A549 cells were treated with NBM-HB-OS01 (2.5, 5.0, 7.5, 10.0 μg/mL) for 24 hours and were treated with NBM-C-BCX-OS01 (2.5, 5.0, 7.5 μg/mL) and NBM-C-BMX-OS01 (2.5, 5, 7.5 μg/mL) for 72 hours. Human glioblastoma 05-MG cells were treated with NBM-C-BCX-OS01 (1.0, 2.0, 4.0 μg/mL) and NBM-C-BMX-OS01 (1.0, 2.0, 4.0 μg/mL) for 72 hours. Human glioma Hs683 cells were treated with NBM-C-BCX-OS01 (1.0, 2.0, 4.0 μg/mL). For cell cycle analysis, cells were fixed in 80% ethanol for 1 hour (or overnight) at −20° C. and then incubated with 2 μg/mL RNase A for 30 minutes at 37° C. Cells were stained with propidium iodide ([…] PI) in PBS and analyzed using a Becton Dickinson flow cytometer, BD FACScan and CellQuest acquisition and analysis programs. […] Human glioma Hs683 cells were treated with NBM-C-BCX-OS01 (1.0, 2.0, 4.0 μg/mL) for 72 hours.

[9] = test system: Human colon cancer HT-29 cells; experiment: Inhibition of cancer cell growth; format: cell-based; conditions: various concentrations, 48 hrs (FIG. 1(b))
[10] = test system: Gelsolin in Human breast cancer MCF-7 cells; experiment: Immunostaining of HDAC associated proteins; format: cell-based; conditions: 10 μg/mL, 24 hrs (FIG. 1(g))
Protocol: as §3

[11] = test system: p21 mRNA in Rat C6 glioma cells; experiment: RT-PCR of cell-cycle related mRNA expression; format: cell-based; conditions: 48 hrs, GAPDH internal control (FIG. 1(d))
Protocol: The cell-cycle related mRNA expression was examined by RT-PCR. The total RNA was isolated from the treated Rat C6 glioma cells using the RNeasy Mini Kit (Qiagen) as described by the manufacturer. The cDNA was produced from 500 ng of total RNA using ReverTra-Plus™ (TOYOBO).

[12] = test system: acetyl-Histone H3, acetyl-Histone H4, acetyl-tubulin, p21 in Rat C6 glioma cells; experiment: Immunoblotting of hyperacetylated histone, tubulin and p21; format: cell-based
Protocol: as §4

[13] = various concentrations, 48 hrs (FIG. 1(a), 2(a))
[14] = Rat C6 glioma cells, 2.5, 5.0, 7.5, 10.0 μg/mL, 72 hrs, western blotting (FIG. 1(e))

COc1ccc(COc2c(/C=C\C(=O)NO)ccc(OC)c2CC=C(C)C)cc1 [NBM-C-BMX-OS01, (Z)-2-(4-Methoxyhenzoxy)-3-prenyl-4-methoxy-N-hydroxycinamide]
cell growth inhibition [1]: Cell growth inhibition was observed
cell growth inhibition [2]: induced A549 cells growth inhibition in a dose-dependent manner; also recorded: induced A549 cell growth inhibition in dose-dependent amounts
inhibition of cell growth (Rat C6 glioma cells; 24 hrs, NBM-C-BA-OS01 5 μg/mL, others 2.5, 5.0 μg/mL (FIG. 5(a))): inhibited the cell growth
inhibition of cell growth, similar to dose-dependent A549 result (Rat C6 glioma cells; various concentrations, 24 hrs (FIG. 5(c))): the results were similar
change of cell morphology ([3]; 72 hours (FIG. 6(a))): changed the morphology of the cells
inhibition of cell growth ([3]; various concentrations, 72 hrs (FIG. 6(a))): inhibition of the cell growth of human breast cancer MDA-MB-231 cells was observed; also recorded: inhibited the growth
CTPS protein level ([4]; 72 hrs (FIG. 7(a))): decreased in a dose-dependent manner
Hsp90 protein level ([4]; 72 hrs (FIG. 7(a))): decreased in a dose-dependent manner
induction (increase) of acetylated Hsp90 protein ([4]; 72 hrs (FIG. 7(a))): detected in a dose-dependent manner; also recorded: observed in a dose-dependent manner
induction (increase) of gelsolin protein ([4]; 72 hrs (FIG. 7(a))): detected in a dose-dependent manner; also recorded: observed in a dose-dependent manner
expression of acetylated Histone H3 ([4]; 72 hrs (FIG. 7(b))): significantly increased in a dose-dependent manner; also recorded: induced in a dose-dependent manner
expression of acetylated Histone H4 ([4]; 72 hrs (FIG. 7(b))): significantly increased in a dose-dependent manner; also recorded: induced in a dose-dependent manner
expression of acetylated tubulin ([4]; 72 hrs (FIG. 7(b))): significantly increased in a dose-dependent manner; also recorded: induced in a dose-dependent manner
expression of p21 ([4]; 72 hrs (FIG. 7(b))): significantly increased in a dose-dependent manner; also recorded: induced in a dose-dependent manner

Cc1[nH]c2ccccc2c1CCNCc1ccc(/C=C/C(=O)NO)cc1 [LBH589]
growth inhibition and regression by triggering apoptosis (tumor cell lines): induces growth inhibition and regression

COc1ccc(/C=C\C(=O)NO)c(OCc2ccccc2)c1CC=C(C)C [NBM-C-BX-OS01, (Z)-2-Benzoxy-3-prenyl-4-methoxy-N-hydroxy-cinamide]
cell growth inhibition [2]: induced A549 cells growth inhibition in a dose-dependent manner; also recorded: induced A549 cell growth inhibition in dose-dependent amounts
inhibition of cell growth ([2]; various concentrations, 48 hrs (FIG. 2(c))): Inhibition of cancer cells growth was shown; also recorded: arrested the cell growth
acetylated tubulin protein expression [5]: Overexpression of acetylated tubulin protein was observed; also recorded: could induce the HDAC associated proteins expression
inhibition of cell growth (Rat C6 glioma cells; [13]): Inhibition of cancer cells growth was shown; also recorded: arrested the cell growth
inhibition of cell growth [6]: Inhibition of cancer cells growth was shown; also recorded: arrested the cell growth
expression of acetylated H3 [7]: increased in a dose-dependent manner
expression of acetylated H4 [7]: increased in a dose-dependent manner
expression of acetylated-tubulin [7]: increased in a dose-dependent manner
expression of p21 [7]: increased in a dose-dependent manner

COc1ccc(/C=C\C(=O)OCc2ccccc2)c(OCc2ccccc2)c1CCC(C)(C)O [NBM-HB-OS01]
cell cycle arrest phase [8]: arrested the human lung cancer A549 cells on the G0/G1 phase in a dose-dependent manner
inhibition of cell growth [9]: Inhibition of cancer cell growth
inhibition of cell growth ([9]; listed as NBM-HB-HB-OS01): Inhibition of cancer cells was shown
Gelsolin protein expression [10]: Overexpression of Gelsolin protein was observed; also recorded: could induce the HDAC associated proteins expression
inhibition of cell growth (Rat C6 glioma cells; [13]): Inhibition of cancer cell growth
inhibition of cell growth (Rat C6 glioma cells; various concentrations, 48 hrs (FIG. 1(a), 2(a)), listed as NBM-HB-HB-OS01): Inhibition of cancer cells was shown
p21 mRNA (gene) expression [11]: increased p21 gene expression; also recorded: induced p21 mRNA expression
accumulation of p21 ([12]; Rat C6 glioma cells, 10 μg/mL for 1, 2, 3 and 4 hrs (FIG. 1(f))): seen in a dose-dependent manner
accumulation of hyperacetylated histone H3 [12, 14]: detected in a dose-dependent manner
accumulation of hyperacetylated histone H4 [12, 14]: detected in a dose-dependent manner
accumulation of p21 [12, 14]: detected in a dose-dependent manner
